Assays:
human mGluR2 receptor = biological target: T1, human mGluR2 receptor (Homo sapiens, UniProt Q14416); assay: [35S]GTPγS binding assay (GTPγS-PAM): positive allosteric modulation in presence of glutamate at EC25, membranes from transfected CHO cells; assay type: biochemical; settings: in presence of mGluR2 agonist glutamate at predetermined EC25 concentration, averages of duplicate values of 11-concentration response curves, read-out: GTPgS - hR2 PAM pEC50 (converted)
T1 construct: expressed in transfected cells; host or cells: CHO cells (membrane preparation)
Method in brief: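 Potentiation was read as filter-retained [35S]GTPγS (0.1 nM final, 30 min, 30° C.) after a 30 min, 30° C. preincubation of human mGluR2 CHO membranes (15 μg/well) with EC25 glutamate and 11 modulator concentrations spanning 0.3 nM-50 μM. The buffer was 50 mM HEPES pH 7.4, NaCl, MgCl2, 50 μM GDP and saponin. Cold 10 μM GTP defined nonspecific binding; data were fitted by a four-parameter logistic.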

T1 sequence (Q14416 19-872): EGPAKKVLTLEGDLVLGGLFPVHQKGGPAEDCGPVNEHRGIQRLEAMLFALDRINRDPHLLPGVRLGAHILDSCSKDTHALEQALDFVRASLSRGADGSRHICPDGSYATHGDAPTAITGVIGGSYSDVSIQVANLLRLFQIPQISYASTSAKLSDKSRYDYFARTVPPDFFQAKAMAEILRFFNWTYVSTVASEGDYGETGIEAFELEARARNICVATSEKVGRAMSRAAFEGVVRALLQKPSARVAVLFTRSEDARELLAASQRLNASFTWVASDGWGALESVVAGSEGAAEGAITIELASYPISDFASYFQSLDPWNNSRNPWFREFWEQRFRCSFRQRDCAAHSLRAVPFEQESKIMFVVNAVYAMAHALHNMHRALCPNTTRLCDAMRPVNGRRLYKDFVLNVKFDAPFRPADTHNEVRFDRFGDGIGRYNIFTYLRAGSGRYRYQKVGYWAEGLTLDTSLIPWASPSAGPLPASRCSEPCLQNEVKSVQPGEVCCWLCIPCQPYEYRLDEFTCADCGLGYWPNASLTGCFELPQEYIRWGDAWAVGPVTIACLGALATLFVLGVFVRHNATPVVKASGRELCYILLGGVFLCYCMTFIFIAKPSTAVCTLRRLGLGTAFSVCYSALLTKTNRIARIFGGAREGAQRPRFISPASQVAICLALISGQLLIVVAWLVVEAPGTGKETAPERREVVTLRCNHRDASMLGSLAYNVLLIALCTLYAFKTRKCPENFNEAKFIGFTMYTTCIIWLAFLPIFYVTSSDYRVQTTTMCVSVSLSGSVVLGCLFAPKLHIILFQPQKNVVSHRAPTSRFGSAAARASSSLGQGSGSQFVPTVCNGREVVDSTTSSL

SMILES: N#Cc1c(N2CCC(N(Cc3cccc(F)c3)C3CC3)CC2)ccn(Cc2ccc(F)cc2)c1=O [4-059]
- EC50 (human mGluR2 receptor): 251 nM
- melting point: 157 °C

SMILES: N#Cc1c(N2CCC(N(Cc3cccc(C(F)(F)F)c3)C3CC3)CC2)ccn(Cc2ccc(F)cc2)c1=O [4-060]
- EC50 (human mGluR2 receptor): 50.1 nM
- melting point: 96 °C

SMILES: N#Cc1c(N2CCC(N3Cc4ccc(F)cc4C3)CC2)ccn(Cc2ccc(F)cc2)c1=O [4-061]
- EC50 (human mGluR2 receptor): 1580 nM
- melting point: 175 °C

SMILES: N#Cc1c(N2CCC(c3ccccc3)CC2)ccn(Cc2ccc(OC(F)(F)F)cc2)c1=O [4-062]
- EC50 (human mGluR2 receptor): 39.8 nM
- melting point: 139 °C

SMILES: CN(Cc1ccccc1)C1CCN(c2ccn(CCOc3ccccc3)c(=O)c2C#N)CC1 [4-064]
- EC50 (human mGluR2 receptor): 126 nM
- melting point: 159 °C

SMILES: CCCCn1ccc(-c2ccc3c(c2)nc(C)n3Cc2ccccn2)c(C#N)c1=O [5-002]
- EC50 (human mGluR2 receptor): 6310 nM
- melting point: 164.7 °C

SMILES: CC(C)CCn1ccc(N2CCC(N(C)Cc3cccc(F)c3)C2)c(C#N)c1=O (centres unmarked) [5-006]
- EC50 (human mGluR2 receptor): 3980 nM
- melting point: 100 °C

SMILES: CC(C)CCn1ccc(N2CC(OCc3ccc(OC(F)(F)F)cc3)C2)c(C#N)c1=O [5-008]
- EC50 (human mGluR2 receptor): 251 nM
- melting point: 102 °C

SMILES: CC(C)CCn1ccc(-c2ccc3c(ccn3Cc3ccncc3)c2)c(C#N)c1=O [5-020]
- EC50 (human mGluR2 receptor): 25.1 nM
- melting point: 232 °C

SMILES: CC(C)CCn1ccc(N2CCCc3ccccc32)c(C#N)c1=O [5-031]
- EC50 (human mGluR2 receptor): 6310 nM
- melting point: 134 °C

SMILES: COc1ccc2c(c1)C1CCCN(c3ccn(CCC(C)C)c(=O)c3C#N)C1CC2 (centres unmarked) [5-035]
- EC50 (human mGluR2 receptor): 1580 nM
- melting point: 169 °C

SMILES: CC(C)CCn1ccc(N2CCC3Oc4ccccc4OC3C2)c(C#N)c1=O (centres unmarked) [5-037]
- EC50 (human mGluR2 receptor): 398 nM
- melting point: 217 °C

SMILES: CC(C)CCn1ccc(N2CCc3c([nH]c4ccccc34)C2)c(C#N)c1=O [5-039]
- EC50 (human mGluR2 receptor): 79.4 nM
- melting point: 276 °C

SMILES: CC(C)CCn1ccc(N2CCc3c(n(C)c4ccc(F)cc34)C2)c(C#N)c1=O [5-040]
- EC50 (human mGluR2 receptor): 316 nM
- melting point: 111 °C

SMILES: CC(C)CCn1ccc(N2CCc3c(oc4ccccc34)C2)c(C#N)c1=O [5-041]
- EC50 (human mGluR2 receptor): 50.1 nM
- melting point: 130 °C

SMILES: N#Cc1c(-c2ccc3[nH]ccc3c2)ccn(Cc2ccc(OC(F)(F)F)cc2)c1=O [5-051]
- EC50 (human mGluR2 receptor): 251 nM
- melting point: 166 °C

From patent US9266834B2, “1, 4-disubstituted 3-cyano-pyridone derivatives and their use as positive allosteric modulators of MGLUR2-receptors” (JANSSEN PHARMACEUTICALS, INC., priority 2006, dated 2016)
